Laboratory results from US20040248918A1, “N-phenyl-2-pyrimidine-amine derivatives and process for the preparation thereof” (IL YANG PHARM. CO., LTD., priority 2003, published 2004).
Read-outs that look alike come from different tables or passages of the source.

What was measured:
[1] = tested on: L1210 cancer cell (leukemia cell line); assay: Growth inhibition of L1210 cancer cell (MTT); format: cell-based; settings: Mus musculus
Method: (§1) In the present experiment, the inhibitory activity of the compound of formula (1) was determined against the growth of K562 cancer cell. First, the cells were allowed to stand in RPMI (Roswell Park Memorial Institute)-1640 medium containing 10% (v/v) fetal bovine serum in an incubator of 37° C. and 5% by volume of CO2. The cancer cells (1000 cells) were transferred to a 96-well plate, and the test compound was diluted. The plate was allowed to stand under the above mentioned conditions for 2 days. After this treatment, to the cells was added 0.2% MTT (3-[4,5-dimethylthiazol-2-yl]-2,5-diphenyltetrazolium bromide) solution, and the resulting mixture was allowed to stand under the constant temperature-condition for 4 hours. The supernatant was removed to leave the resulting crystal. DMSO was added to dissolve the crystal, and the absorbance of the solution was measured at 540 nm. IC50 value was calculated using a computer system according to the following formula: […]
In the present experiment, the inhibitory activity of the compound of formula (1) was determined against the growth of L1210 cancer cell. The test was performed according to the same procedure as Experiment 1.

[2] = tested on: hepatoma cell (SNU-182); assay: Growth inhibition of SNU-182 (MTT); format: cell-based; design: IC50 as fraction of that of Imatinib mesylate: unit not given beside the values; settings: for IC50: Homo sapiens
Method: as §1
(§2) The test was performed according to the same procedure as Experiment 1.

[3] = tested on: breast cancer cell (MCF-7); assay: Growth inhibition of MCF-7 (MTT); format: cell-based; design: IC50 as fraction of that of Imatinib mesylate: unit not given beside the values; settings: for IC50: Homo sapiens, MCF7
Method: as §1, §2

[4] = tested on: oral epithelial cancer cell (KB); assay: Growth inhibition of KB (MTT); format: cell-based; design: IC50 as fraction of that of Imatinib mesylate: unit not given beside the values; settings: for IC50: Homo sapiens
Method: as §1, §2

[5] = tested on: colon cancer cell of SNU-C1; assay: Growth inhibition of SNU-C1 (MTT); format: cell-based; settings: for IC50: Homo sapiens, read-out: IC50
[6] = tested on: rectal cancer cell of CMT-93; assay: Growth inhibition of CMT-93 (MTT); format: cell-based; settings: for IC50: CMT93, read-out: IC50
Method: as §1, §2

[7] = tested on: bladder cancer cell of HT-1197; assay: Growth inhibition of HT-1197 (MTT); format: cell-based; settings: for IC50: Homo sapiens, HT1197, read-out: IC50
Method: as §1, §2

[8] = tested on: K562 cancer cell (CML cell line); assay: Growth inhibition of K562 cancer cell (MTT); format: cell-based; settings: for IC50: K562, 2 days, MTT; for Improved activity versus Imatinib mesylate: K562
[9] = Comparative pharmacokinetic test in white rats; format: in vivo, white rats (Sprague-Dawley); settings: rat
Method: On the previous day to the test, white rats (Sprague-Dawley, 250˜280 g, male) were put under anesthesia by pentobarbital sodium (50 mg/kg, I.P.). Then, cannula (polyethylene tube; diameter: 0.58mm) was introduced into the rats via the carotid artery and jugular vein, and drawn out to the back. After the operation, the rats were fasted for 16 hours and used for the test. […] Blood was collected in 0, 0.5, 1, 1.5, 2, 2.5, 3, 3.5, 4, 4.5, 5, 6, 8, 10, 12, and 24 hours from the carotid artery. The samples for HPLC analysis were prepared using the collected blood according to the following procedure and were analyzed under the following conditions.
Blood was collected by an amount of 0.5 ml at each prearranged time and centrifuged at 15000 rpm for 7 minutes to separate […] of plasma. In order to remove proteins, MeOH was added in an amount of […], twice as much as the amount of plasma, and the mixture was shaken for 30 minutes. The mixture was centrifuged again at 15000 rpm for 5 minutes to give protein free supernatant, which was then analyzed by HPLC.
Flow rate: 1.0 ml/min, UV detection at 267 nm
Column: 4.6×150 mm, 5C18-AR-II, COSMOSIL
Eluent: Mixture of ion pair sample (420 ml) and MeOH (580 ml)
Ion pair sample: 7.5 g of 1-octanesulfonic acid was dissolved in 800 ml of water. The resulting mixture was adjusted to pH 2.5 using phosphoric acid and diluted with water to 1000 ml volume.
Here, the pharmacokinetic parameters are Tmax (time to reach the maximum blood concentration), Cmax (maximum blood concentration), AUC (area under the curve of time-blood concentration), and T1/2 (half time in blood), and the AUC was calculated under trapezoid rule (see Tables 6, 7 and FIGS. 1, 2).

[10] = tested on: hematologic malignancy cell (HL-60); assay: Growth inhibition of HL-60 (MTT); format: cell-based; design: IC50 as fraction of that of Imatinib mesylate: unit not given beside the values; settings: for IC50: Homo sapiens
[11] = tested on: gastric cancer cell (KATO III); assay: Growth inhibition of KATO III (MTT); format: cell-based; design: IC50 as fraction of that of Imatinib mesylate: unit not given beside the values; settings: for IC50: Homo sapiens
Method: as §1, §2

[12] = tested on: lung cancer cell (A549); assay: Growth inhibition of A549 (MTT); format: cell-based; design: IC50 as fraction of that of Imatinib mesylate: unit not given beside the values; settings: for IC50: Homo sapiens
Method: as §1, §2

[13] = tested on: lymphoma cell (RPMI-6666); assay: Growth inhibition of RPMI-6666 (MTT); format: cell-based; settings: for IC50: Homo sapiens
Method: as §1, §2

[14] = tested on: pancreatic cancer cell of PANC-1; assay: Growth inhibition of PANC-1 (MTT); format: cell-based; settings: for IC50: Homo sapiens, read-out: IC50
[15] = tested on: acute myelogenous leukemia cell (KG-1); assay: Growth inhibition of KG-1 (MTT); format: cell-based; settings: for IC50: Homo sapiens
[16] = tested on: ovarian cancer cell (SK-OV-03); assay: Growth inhibition of SK-OV-03 (MTT); format: cell-based; design: IC50 as fraction of that of Imatinib mesylate: unit not given beside the values
Method: as §1, §2

[17] = tested on: prostatic cancer cell (DU-145); assay: Growth inhibition of DU-145 (MTT); format: cell-based; design: IC50 as fraction of that of Imatinib mesylate: unit not given beside the values; settings: for IC50: Homo sapiens
Method: as §1, §2

[18] = Homo sapiens, K562, 48 h, read-out: IC50
[19] = male, Sprague-Dawley, plasma, po, 50 mg/kg, P.O.
[20] = male, Sprague-Dawley, plasma, iv, 50 mg/kg, I.V.

Row | SMILES | IC50 [1] [µg/mL] | IC50 [2] [µg/mL] | IC50 [3] [µg/mL] | IC50 [4] [µg/mL] | Improved activity versus 5-Fu [5] [times] | Improved activity versus Imatinib mesylate [5] | Improved activity versus cisplatin [5] | IC50 [5] [µg/mL] | IC50 [6] [µg/mL] | IC50 [7] [µg/mL] | IC50 [8, 18] [µg/mL] | IC50 [10] [µg/mL] | IC50 [11] [µg/mL] | IC50 [12] [µg/mL] | IC50 [13] [µg/mL] | Improved activity versus 5-Fu [14] [times] | IC50 [14] [µg/mL] | IC50 [15] [µg/mL] | IC50 [16] [µg/mL] | IC50 [17] [µg/mL] | also measured
1 | CS(=O)(=O)O.Cc1ccc(NC(=O)c2ccc(CNN3CCN(C)CC3)cc2)cc1Nc1nccc(-c2cccnc2)n1 [Example 4, 4-(4-methylpiperazin-1-ylaminomethyl)-N-[4-methyl-3-(4-(pyridin-3-yl)pyrimidin-2-yl)aminophenyl]benzamide methanesulfonate] | 26.9 | 48 | > 50 | 35 | 9 | 3 times | 30 times | 10 | 8.39 | 50.1 | ≤ 0.1 | 27.8 | 32.4 | 46.6 | 33.8 | 10 | 53.8 | > 50 | > 50 | 41.3 | IC50 ([8]; methanesulfonate): <0.10 µg/mL; Improved activity versus Imatinib mesylate ([8]; listed as example 4, methanesulfonate): 5 times; Improved activity versus Imatinib mesylate ([8]; methanesulfonate): ≥ 5 times; Cmax [9, 19]: 3160 ng/mL; Tmax [9, 19]: 2 h; AUC ([9]; male, Sprague-Dawley, plasma, po, 50 mg/kg, P.O., trapezoid rule): 23000 ng·h/mL; AUC relative to Imatinib mesylate ([9]; both per oral 100 mg/kg): about twice; Cmax relative to Imatinib mesylate ([9]; both per oral 100 mg/kg): about twice
2 | CN1CCCN(Cc2ccc(C(=O)Nc3ccc(Nc4nccc(-c5cccnc5)n4)cc3)cc2)CC1.CS(=O)(=O)O [Example 10, 4-(4-methylhomopiperazin-1-ylmethyl)-N-[4-(4-(pyridin-3-yl)pyrimidin-2-yl)aminophenyl]benzamide methanesulfonate] | 3.4 | 7.94 | 6.96 | 8.99 | > 80 | more than 25 times | more than 250 times | 1.2 | 4.04 | 1.7 | 3.85 | 4.28 | 3.26 | 3.5 | 2.12 | > 120 | 4.62 | 3.31 | 25.5 | 5.51 | IC50 as fraction of that of Imatinib mesylate [2]: 1/5; IC50 as fraction of that of Imatinib mesylate [3]: 1/7; IC50 as fraction of that of Imatinib mesylate [4]: 1/5; Improved activity versus Imatinib mesylate [6]: > 1.5 times; Improved activity versus 5-Fu [7]: > 55 times; Improved activity versus Imatinib mesylate [7]: > 32 times; Improved activity versus cisplatin [7]: more than 4.4 times; AUC [9, 20]: 8920 ng·h/mL; half-life [9, 20]: 1.37 h; IC50 as fraction of that of Imatinib mesylate [10]: 1/8; IC50 as fraction of that of Imatinib mesylate [11]: 1/10; IC50 as fraction of that of Imatinib mesylate [12]: 1/10; IC50 as fraction of that of Imatinib mesylate [13]: 1/15; Improved activity versus Imatinib mesylate [14]: more than 10 times; Improved activity versus cisplatin [14]: more than 9 times; IC50 as fraction of that of Imatinib mesylate [15]: 1/10; IC50 as fraction of that of Imatinib mesylate [16]: 1/2; IC50 as fraction of that of Imatinib mesylate [17]: 1/2
